Experimental data taken from the supplement of paper PMC10307832.

How the values were obtained:
Assay in all cases: relative viability (nuclei count vs DMSO), 5 days (fraction); higher = more cells survive
AZD5582 + Vorinostat = compound: C[C@@H](C(=O)N[C@@H](C1CCCCC1)C(=O)N2CCC[C@H]2C(=O)N[C@@H]3[C@@H](CC4=CC=CC=C34)OCC#CC#CCO[C@@H]5CC6=CC=CC=C6[C@@H]5NC(=O)[C@@H]7CCCN7C(=O)[C@H](C8CCCCC8)NC(=O)[C@H](C)NC)NC [AZD5582] + O=C(CCCCCCC(=O)Nc1ccccc1)NO [Vorinostat] (partner 1 µM)
How it was run: (§1)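 Lung cancer cell lines in 1536-well plates were dosed by pin tool the day after seeding, either with one drug alone or with a fixed anchor-drug dose plus five library-drug doses (not always all listed) in √10 steps. After 5 days, cells were fixed and their nuclei stained in one step (final 0.05% Triton X-100, 1% formaldehyde, 1 ug/ml Hoechst), then counted on 4× images. Relative viability is the nuclei count in treated wells divided by that in vehicle wells. Values are medians of duplicate plates.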

[1] = compound: Cn1nnc2c(C(N)=O)ncn2c1=O [Temozolomide] + CCNC(=O)c1noc(-c2cc(C(C)C)c(O)cc2O)c1-c1ccc(CN2CCOCC2)cc1 [Luminespib] (partner 0.01 µM)
How it was run: as §1

[2] = compound: Cn1nnc2c(C(N)=O)ncn2c1=O [Temozolomide] + C[C@]1(O)C[C@@H](c2nc(-c3ccc4ccc(-c5ccccc5)nc4c3)c3c(N)nccn32)C1 [Linsitinib] (partner 1 µM)
How it was run: as §1

Temozolomide + Olaparib = compound: Cn1nnc2c(C(N)=O)ncn2c1=O [Temozolomide] + O=C(c1cc(Cc2n[nH]c(=O)c3ccccc23)ccc1F)N1CCN(C(=O)C2CC2)CC1 [Olaparib] (partner 8 µM)
How it was run: as §1

Cell Line	relative viability (AZD5582 + Vorinostat; first compound 0.001581 µM)	relative viability (AZD5582 + Vorinostat; first compound 0.005 µM)	relative viability (AZD5582 + Vorinostat; first compound 0.01581 µM)	relative viability (AZD5582 + Vorinostat; first compound 0.05 µM)	relative viability ([1]; first compound 0.2 µM)	relative viability ([1]; first compound 0.6325 µM)	relative viability ([1]; first compound 2 µM)	relative viability ([1]; first compound 6.325 µM)	relative viability ([1]; first compound 20 µM)	relative viability ([2]; first compound 0.2 µM)	relative viability ([2]; first compound 0.6325 µM)	relative viability ([2]; first compound 2 µM)	relative viability ([2]; first compound 6.325 µM)	relative viability ([2]; first compound 20 µM)	relative viability (Temozolomide + Olaparib; first compound 0.2 µM)	relative viability (Temozolomide + Olaparib; first compound 0.6325 µM)	relative viability (Temozolomide + Olaparib; first compound 2 µM)	relative viability (Temozolomide + Olaparib; first compound 6.325 µM)	relative viability (Temozolomide + Olaparib; first compound 20 µM)
NCI-H2126	0.817	0.84	0.47	0.704	0.917	0.927	1	0.802	0.888	0.691	0.712	0.646	0.768	0.692	0.875	0.903	0.852	0.921	0.831
LXF-289	0.698	0.779	0.641	0.905	0.712	0.782	0.722	0.729	0.659	0.933	0.939	0.954	0.938	0.876	1.11	1.13	1.03	0.951	0.774
RERF-LC-KJ	0.306	0.225	0.655	0.283	1.29	1.19	1.32	1.19	1.27	0.928	0.888	0.948	0.982	0.868	0.975	1.05	0.998	0.846	0.799
NCI-H661	0.742	0.786	0.806	0.762	0.977	0.931	0.934	0.879	0.843		0.54	0.641	0.442	0.525	0.744	0.735	0.731	0.634	0.551
NCI-H1395	0.721	0.789		0.768	0.51	0.67	0.703	0.65	0.6	0.821	1.05	1.31	0.978	1.04	0.439	0.441	0.51	0.354	0.385
COR-L23	0.404	0.495	0.452	0.587	0.639	0.669	0.737	0.696	0.612	1.01	1.08	0.863	0.994	0.819	0.374	0.377	0.318	0.257	0.189
HCC-44	1.04	1.01	1.08	1.04	0.634	1.05	1.12	0.897	0.966	0.668	0.741	0.681	0.718	0.562	0.975	1.02	0.949	1.02	0.854
PC-3 [JPC-3]	0.714	0.532	0.664	0.43	0.63	0.739	0.776	0.659	0.421	0.932	0.975	0.941	0.987	0.499	0.909	1.16	1.12	0.988	0.435
NCI-H23	0.445	0.583	0.483	0.448	0.223	0.208	0.229	0.21	0.237	0.596	0.541	0.698	0.668	0.5	0.345	0.32	0.382	0.266	0.22
NCI-H596	0.506		0.629	0.527	1.15	1.15	0.948	0.84	1.18	1.16	1.08	1.02	1.09	1.02	0.685	0.694	0.764	0.677	0.657
LU99A	0.503	0.482	0.466	0.591	0.265	0.312	0.288	0.23	0.225	0.595	0.514	0.551	0.564	0.572	0.285	0.258	0.295	0.155	0.119
LCLC-97TM1	0.34	0.62	0.159	0.343	0.835	0.7	0.749	0.806	0.75	0.191	0.19	0.173	0.176	0.203	0.512	0.447	0.436	0.238	0.226
LCLC-103H	0.736	0.797	0.429	0.636	1.09	1.04	1.07	1.01	0.872	1.03	1.05	1.23	1.09	1.01	0.82	0.79	0.85	0.731	0.617
NCI-H358	0.639	0.745	0.678	0.714		0.271	0.485	0.347	0.404	0.576	0.728	0.854	0.797	0.617	0.706	0.732	0.631	0.545	0.351
SK-MES-1	1.08	1.19	1.02	1.26	0.939	0.823	0.777	0.831	0.772	1.14	1.09	1.07	1.13	1.05	0.824	0.632	0.648	0.532	0.414
NCI-H838	0.716	0.775	0.855	0.956	0.357	0.346	0.35	0.301	0.393	1.03	1.05	1.03	1.08	1.09	0.785	0.776	0.818	0.719	0.687
HCC-15	0.762	0.883	0.752	0.967	0.347	0.356	0.314	0.218	0.271	0.976	0.905	0.928	0.858	0.888	0.791	0.767	0.684	0.637	0.589
EPLC-272H			0.429	0.074	0.234	0.279	0.304	0.707	0.446	1.13	1.13	1.38	1.11	0.812	1.13	0.739	0.833	0.914	0.49
UMC-11	0.396	0.391	0.381	0.354	1.05	1.07	1.17	0.971	0.66	1	1.06	0.942	0.91	0.584	0.386	0.612	0.382	0.306	0.265
HARA	0.659	0.69	0.441	0.672	0.681	0.801	0.835	0.788	0.697	0.593	0.985	1.09	0.933	0.863	0.9	1.19	0.844	1.01	0.444
201T	1.05	1.11	0.919	1.22	1.11	1.07	1.05	1.02	0.985	0.975	1.07	1.11	1.04	0.991	0.843	0.891	0.884	0.809	0.742
NCI-H1944	0.464	0.641	0.542	0.619	0.59	0.829	0.907	0.729	0.711	0.662	1.17	1.26	1.11	0.992	0.428	0.38	0.377	0.315	0.27
H3255	0.831	0.976	0.722	0.48		0.991	0.946	0.868	0.28		0.963	0.927	0.959	0.145		0.554	0.565	0.477	0.345
NCI-H1437	0.711	0.751	0.838	0.743	1.1	1.09	1.12	1.12	1.11	1.15	1.02	1.11	1.01	1.14	0.614	0.606	0.632	0.583	0.523
NCI-H2347	0.63	0.547	0.515	0.483	0.417	0.414	0.608	0.488	0.322	1.08	1.11	1	0.859	0.964	0.59	0.538	0.614	0.603	0.472
SK-LU-1	0.7	0.505	0.824	0.292	0.231	0.195	0.189	0.191	0.24	1.26	1.06	1.05	0.671	0.454	0.428	0.446	0.416	0.292	0.203
NCI-H2087	0.424	0.788	0.712	0.594	0.204	0.188	0.188	0.165	0.168	1.09	0.862	1.03	0.826	0.949	0.698	0.723	0.698	0.502	0.378
NCI-H727	1.06	1.13	1.01	1.16	0.239	0.397	0.299	0.37	0.325	0.287	0.329	0.196	0.224	0.233		0.681	0.791	0.516	0.55
